Measurements as given in article PMC9267968, “Continued Structural Exploration of Sulfocoumarin as Selective Inhibitor of Tumor-Associated Human Carbonic Anhydrases IX and XII” (Molecules, 2022).
Where two headings read alike, the source gives them in different places.

How the values were obtained:
[1] = molecular target: T1, hCA XII (Homo sapiens, UniProt O43570); experiment: biochemical
T1 construct: made in house
Procedure: (§1) For this reason, we herein report a 6 h incubation time instead.
(§2) An Applied Photophysics stopped-flow instrument was used for assaying the CA catalyzed CO2 hydration activity. […] The uncatalyzed rates were determined in the same manner and subtracted from the total observed rates. Stock solutions of inhibitor (0.1 mM) were prepared in distilled–deionized water and dilutions up to 0.01 nM were done thereafter with the assay buffer. Inhibitor and enzyme solutions were preincubated together for 6h at room temperature prior to assay, in order to allow for the formation of the E-I complex. The inhibition constants were obtained by non-linear least-squares methods using PRISM 3 and the Cheng–Prusoff equation and represent the mean from at least three different determinations. […] All CA isoforms were recombinant ones obtained in-house.

[2] = molecular target: T2, hCA IX (Homo sapiens, UniProt Q16790); experiment: stopped-flow CO2 hydrase assay, hCA IX inhibition; assay type: biochemical; conditions: 6 h incubation of enzyme and inhibitor; mean from 3 different assays, errors 5-10%; read-out: KI (nM) CA IX
T2 construct: made in house
Procedure: as §1, §2

[3] = molecular target: T3, hCA I (Homo sapiens, UniProt P00915); experiment: stopped-flow CO2 hydrase assay, hCA I inhibition; assay type: biochemical; conditions: 6 h incubation of enzyme and inhibitor; mean from 3 different assays, errors 5-10%; read-out: KI (nM) CA I
T3 construct: made in house
T3 sequence (P00915 whole entry): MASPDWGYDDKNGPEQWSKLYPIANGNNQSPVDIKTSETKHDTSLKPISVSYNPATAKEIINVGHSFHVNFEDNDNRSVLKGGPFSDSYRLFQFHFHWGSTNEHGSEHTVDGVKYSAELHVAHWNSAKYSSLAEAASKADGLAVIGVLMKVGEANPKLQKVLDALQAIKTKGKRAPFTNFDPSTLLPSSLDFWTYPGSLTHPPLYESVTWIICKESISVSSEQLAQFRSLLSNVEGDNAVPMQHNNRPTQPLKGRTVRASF
Procedure: as §1, §2

[4] = molecular target: T4, hCA II (Homo sapiens, UniProt P00918); experiment: stopped-flow CO2 hydrase assay, hCA II inhibition; assay type: biochemical; conditions: 6 h incubation of enzyme and inhibitor; mean from 3 different assays, errors 5-10%; read-out: KI (nM) CA II
T4 construct: made in house
Procedure: as §1, §2

[5] = 6 h incubation of enzyme and inhibitor, mean from 3 different assays, errors 5-10%, read-out: KI (nM) CA XII

T1 sequence (O43570 25-354): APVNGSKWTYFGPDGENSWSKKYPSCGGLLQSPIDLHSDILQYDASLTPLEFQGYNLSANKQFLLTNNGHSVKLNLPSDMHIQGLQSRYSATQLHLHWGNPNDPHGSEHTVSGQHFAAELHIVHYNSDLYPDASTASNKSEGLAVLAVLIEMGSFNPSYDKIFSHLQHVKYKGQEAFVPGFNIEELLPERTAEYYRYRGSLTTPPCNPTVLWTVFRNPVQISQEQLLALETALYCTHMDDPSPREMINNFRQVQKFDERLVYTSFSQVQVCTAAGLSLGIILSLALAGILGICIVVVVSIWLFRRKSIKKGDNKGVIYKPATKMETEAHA

| Ki [1] [nM] | melting point [°C] | Ki [2] [nM] | Ki [3] [nM] | Ki [4] [nM] | Ki [1, 5] [nM] | SMILES |
| --- | --- | --- | --- | --- | --- | --- |
| 2470 | 222 to 225 | 6560 | > 100000 | > 100000 |  | COc1cccc(NC(=O)C2=Cc3ccc(OC)cc3OS2(=O)=O)c1 [Compound 47, N-(3-methoxyphenyl)-7-methoxybenzo[e][1,2]oxathiine-3-carboxamide 2,2-dioxide] |
|  | 247 to 249 | 89.7 | > 100000 | > 100000 | 101 | CC1=CS(=O)(=O)Oc2cc(OCc3ccc([N+](=O)[O-])cc3)ccc21 [Compound 21, 7-((4-nitrobenzyl)oxy)-4-methylbenzo[e][1,2]oxathiine 2,2-dioxide] |
|  | 180 to 183 | 28.4 | > 100000 | > 100000 | 46 | O=S1(=O)C=Cc2ccc(OCc3cccc(F)c3)cc2O1 [Compound 15, 7-((3-Fluorobenzyl)oxy)benzo[e][1,2]oxathiine 2,2-dioxide] |
| 76500 | 218 to 220 | 64400 | > 100000 | > 100000 |  | COc1ccc2c(c1)OS(=O)(=O)C(C(=O)Nc1cccc(Br)c1)=C2 [Compound 45, N-(3-bromophenyl)-7-methoxybenzo[e][1,2]oxathiine-3-carboxamide 2,2-dioxide] |
|  | 151 to 153 | 97.2 | > 100000 | 8810 | 73.9 | COc1ccc2c(c1)OS(=O)(=O)C=C2C [Compound 10, 7-Methoxy-4-methylbenzo[e][1,2]oxathiine 2,2-dioxide] |
